This is an account of results in article PMC6655611, “The effect of amantadine on an ion channel protein from Chikungunya virus” (PLoS Neglected Tropical Diseases, 2019).

A word on the stoichiometry N: it is a count of units in the complex or per binding partner.

One data set deals with T1, CHIKV 6K (GST-6K) (Chikungunya virus strain Senegal 37997, UniProt Q5XXP3).
T1 construct: mature 6K cut from structural polyprotein C-E3-E2-6K-E1; N-terminal GST tag kept (pGEX-6P2), E. coli Rosetta pLysS
Briefly: planar lipid bilayer electrophysiology; also liposome dye release and DLS fusion assay. The following applies: 1 uM amantadine; 2.6 ng/ul GST-6K in DPhPC/cholesterol bilayer, 500 mM KCl, 5 mM MgCl2, 10 mM HEPES pH 7.4, 24-25 C, -70 and +70 mV; direct binding not measured. It is filed as biochemical.

The data set “SEC” concerns the molecule itself. Briefly: SEC. In general terms: Size exclusion chromatography separates by hydrodynamic size, large species first.

Turning to `NC12CC3CC(CC(C3)C1)C2` [amantadine], the “planar lipid bilayer electrophysiology; also liposome dye release and DLS fusion” value on CHIKV 6K (GST-6K) is listed as “This clearly indicates that amantadine abolishes the ion channel activity of CHIKV 6K”.

B1: GST-6K (fusion of Chikungunya virus 6K with Glutathione S Transferase) (natural protein)
chain: ATYYEAAAYLWNEQQPLFWLQALIPLAALIVLCNCLKLLPCCCKTLAFLAVMSIGAHTVSA
notes: Monomer MW printed as 33.5 kDa; The GST tag was not removed; also called CHIKV 6K; recombinant GST-6K; not shown: GST, N-terminal, kept
B1: the “stoichiometry N” value in “SEC” was 6.
